Assay results reported in patent US8022034B2, “Combination therapy for the treatment of diabetes and conditions related thereto and for the treatment of conditions ameliorated by increasing a blood GLP-1 level” (Arena Pharmaceuticals, Inc., priority 2005, dated 2011).
One block for each molecule: values may come before it.

Experiments:
blood glucose level = test: Oral glucose tolerance test (oGTT) in C57BL/6J mice (Example 14); format: in vivo; conditions: DPP-IV inhibitor alone, 1 mpk oral gavage, one hour before glucose bolus 2 gram/kg
Protocol: Oral glucose tolerance test (oGTT) in 7-8 week old C57BL/6J mice was carried out as described here. […] GPR119 agonist AR244061 was administered at 10 mpk or 30 mpk (milligram compound per kilogram of body weight). […] One hour after compound dosing, a glucose bolus (2 gram/kg) was delivered per orally, and tail blood samples were collected to measure blood glucose at 0, 30, 60 and 120 minutes. […] For each treatment group, glycemic excursion curve was graphed and is presented with blood glucose concentration given in mean values+/− standard error of the mean (SEM). Area Under Curve (AUC) of the glycemic excursion was calculated and reported as AUC (% of vehicle control).

[1] = system: elevated blood glucose level; test: Oral glucose tolerance test (oGTT) in mice (Example 1); format: in vivo
Protocol: Oral glucose tolerance test (oGTT) in mice was carried out as described here. Overnight fasted mice (n=6 mice per treatment) were administered via oral gavage with vehicle (PET), a GPR119 agonist (AR231453) at 1 mkg (milligram compound per kilogram of body weight), a DPP-IV inhibitor (AR247810) at 0.1 mkg, or a combination of the GPR119 agonist (1 mkg) and the DPP-IV inhibitor (0.1 mkg). Thirty minutes later, a glucose bolus (3 gram/kg) was then delivered per orally. Plasma glucose levels were determined at the indicated time points over a two hour period using blood (˜5 μl) collected from tail nick and a glucose meter. Glycemic excursion curve was graphed based on data from 6 mice and given in mean values+/−SEM (FIG. 1A).

[2] = target: T1, GPR119 (GLUTag-Fla cells which express GPR119) (Mus musculus, UniProt Q7TQP3); test: Flash Plate adenylyl cyclase (cAMP) assay with GLUTag-Fla cell membranes; format: biochemical
T1 construct: endogenous in cells; host or cells: GLUTag-Fla (mouse enteroendocrine cell line), membrane preparation
T1 sequence (Q7TQP3 1-335): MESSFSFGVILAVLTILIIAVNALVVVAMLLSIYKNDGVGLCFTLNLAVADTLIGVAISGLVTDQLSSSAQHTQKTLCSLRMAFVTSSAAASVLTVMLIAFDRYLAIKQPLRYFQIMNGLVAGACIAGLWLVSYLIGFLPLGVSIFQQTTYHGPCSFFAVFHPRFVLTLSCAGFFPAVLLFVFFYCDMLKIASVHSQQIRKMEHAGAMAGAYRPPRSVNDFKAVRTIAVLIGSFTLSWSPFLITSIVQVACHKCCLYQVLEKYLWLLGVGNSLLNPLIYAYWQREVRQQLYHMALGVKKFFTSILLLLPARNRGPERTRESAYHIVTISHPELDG
Protocol: (§1) GLUTag is a mouse enteroendocrine cell line that secretes GLP-1 [Brubaker et al., Endocrinology (1998) 139:4108-4114]. The effect of GPR119 agonist on the level of intracellular cAMP in GLUTag (Fla subline) enteroendocrine cells was determined. The Fro subline of GLUTag was used as a negative control.
(§2) GluTag (GLUTag-Fla and GLUTag-Fro) cells were plated at […] in 15-cm tissue culture plate with regular growth medium. On the next day, cells were scraped off with cold Scraping Buffer (20 mM HEPES, 10 mM EDTA, pH7.4) and spinned down at 1000 rpm for 17 mins at 4° C. Cell pellets were washed with cold Membrane Wash Buffer (20 mM HEPES, 0.1 mM EDTA, pH7.4) and spun again as above. […] Protein concentration was determined by Bradford Assay. […]
(§3) The cyclase assay was done with a Flash Plate™ Adenylyl Cyclase kit (New England Nuclear; Cat. No. SMP004A). […] The cAMP generated in the wells can be quantitated by a direct competition for binding of radioactive cAMP tracer to the cAMP antibody.
(§4) Details of the cyclase assay as it was carried out are described here. cAMP standards and Detection Buffer (comprising 1 μCi of tracer [125I]cAMP (50 μl) to 11 ml Detection Buffer) were prepared and maintained in accordance with the manufacturer's instructions. […] Plates were incubated for an additional two hours, after which the samples were counted in a Wallac MicroBeta scintillation counter. […]

[3] = system: GLUTag-Fro cells which do not express GPR119; test: Flash Plate adenylyl cyclase (cAMP) assay with GLUTag-Fro cell membranes (negative control); format: biochemical, mouse
Protocol: as §1, §2, §3, §4

GLUTag-Fla cells = test: GLP-1 secretion in GLUTag-Fla cells (GLP-1 Active ELISA); format: cell-based, mouse; conditions: various concentrations, serum free DMEM with 15 mM glucose, one hour at 37° C.
Protocol: GLUTag-Fla cells (see Example 12, supra) were plated in 24-well plates on day one in complete culture medium (DMEM/10% FBS). On day two the culture medium was replaced with a low glucose medium (DMEM/3 mM Glucose/10% FBS). On day three cells were washed twice with 1XPBS. The washed GLUTag-Fla cells were stimulated with GPR119 agonist (AR231453) at various concentrations or with forskolin (1 uM) as a positive control in serum free DMEM with 15 mM glucose for one hour at 37° C. and 5% CO2 in a tissue culture incubator. The supernatants were then collected and clarified by centrifugation at 500 g and 4° C. for 5 minutes. GLP-1 released into the supernatant was determined by ELISA using reagents purchased from LINCO Research Laboratory [Glucagon-Like Peptide-1 (Active) ELISA Kit. Cat. #EGLP-35K].

Molecule: N[C@@H](CC(=O)N1CCn2c(nnc2C(F)(F)F)C1)Cc1cc(F)c(F)cc1F [MK-0431, 3(R)-Amino-1-[3-(trifluoromethyl)-5,6,7,8-tetrahydro[1,2,4]triazolo[4,3-a]pyrazin-7-yl]-4-(2,4,5-trifluorophenyl)butan-1-one]
Glycemic control in oGTT (blood glucose level): measurable glycemic control

Molecule: exendin-4: incretin mimetic [reference compound]
AUC inhibition of glycemic excursion ([1]; incretin mimetic in this mouse model, dose not given): ~60%

Elevation of the level of intracellular cAMP ([2]; GLUTag-Fla cells which express GPR119): elevate the level of intracellular cAMP
EC50 ([2]; GLUTag-Fla membranes, eight doses from 10 uM to 1.27 nM, 60 min at room temperature, read-out: EC50 for elevation of cAMP in GLUTag cells): ~4.3 nM
Molecule: CC(C)c1noc(C2CCN(c3ncnc(Nc4ccc(S(C)(=O)=O)cc4F)c3[N+](=O)[O-])CC2)n1 [AR231453]
AUC inhibition (effective therapeutic response) ([1]; compound alone at significantly higher doses (FIG. 1C, FIG. 1D)): around 40%
Elevation of the level of intracellular cAMP [3]: not
GLP-1 secretion on stimulation (GLUTag-Fla cells): secrete GLP-1

Molecule: N#C[C@@H]1CCCN1C(=O)CNC12CC3CC(CC(O)(C3)C1)C2 [LAF237, (1-[[3-hydroxy-1-adamantyl)amino]acetyl]-2-cyano-(S)-pyrrolidine]
Glycemic control in oGTT (blood glucose level): measurable glycemic control
